Four sequences from patent US20230303631A1, “METHOD FOR INDUCING IMMUNITY TO SARS-CoV-2” (RIKEN, priority 2020, published 2023) can be followed below.

Series [1] deals with CD8 single-positive T cells. In words: Intracellular cytokine staining (IFN-γ, TNF-α) after restimulation with individual 15mer peptides. The series is classed as cell-based, human. The settings on record: for INF-γ production by CD8 single-positive T cells / TNF-α production by CD8 single-positive T cells: PBMCs of 4 healthy volunteers with HLA-A2402, cultured with 15mer mixture (each 10 μg/ml) and IL-2, restimulated with individual 15mer for 16 hours, FIG. 3. Here is the method:
Culture was carried out for 21 days in presence of IL-2 and a peptide and stimulation with a peptide was carried out in the presence of brefeldin and monensin in the same manner as in Example 1, and then, INF-γ production was examined. More specifically, to PBMCs of 4 healthy volunteers (HV) with HLA-A2402, a mixture of 15mer peptides was added such that the concentration of each peptide became 10 μg/ml. The PBMCs were cultured in the presence of IL-2. As a result, T cells having a binding affinity to a peptide in contact with them survive. Autogenous PBMCs were pulsed with a mixture of 15mer peptides every week, irradiated with 40 Gy and added to the above culture as a feeder. On Day 14 and 21, the mixture of 15mer peptides was further added. Thereafter, the culture obtained was pulsed with individual 15mer peptides and cultured for 16 hours in the presence of brefeldin and monensin to induce INF-γ production. Intracellular cytokine staining (anti-IFN-g-APC, anti-TNF-α-PE) were performed and peptide-specific cytokine producing CD8T cells were analyzed.

In series [2] the test system is CD8 single-positive T cells. As to conditions: PBMCs of healthy donors HD1 to HD5, peptide 10 μM, 21 days with IL-2, then 16 hours with peptide, brefeldin A and monensin; FIG. 1.

Where no end group is shown, it is not given here.

GKYEQYIKWPWYIWL [15mer-2]: in series [1], the “INF-γ production by CD8 single-positive T cells” value (shortened to “INF-γ production”) is recorded as “increased” and the “TNF-α production by CD8 single-positive T cells” value (“TNF-α production” below) was “increased”.
For the sequence QYIKWPWYI [pep #4, QYIKWPWYI], in series [2], the “induction of IFN-γ production in CD8 single-positive T cells (cytotoxic T cells)” value is reported as “strong induction of IFN-γ production”. Besides, the “antigen-specific cytotoxic action of CTLs on peptide-pulsed A24-C1R cells” value with A24-C1R cells was “exhibited antigen-specific cytotoxic action”.
On to QYIKWPWYIWLGFIA [15mer-3], for which, in series [1], the “INF-γ production” value is “increased” and the “TNF-α production” value was “increased”. Also, in series [1] (comparison among the 15mer peptides, FIG. 4), the “ratio of INF-γ-positive, TNF-α-positive CD8T cells (stimulation of T cells)” value is on record as “stimulated T cells most satisfactorily”.
Consider WPWYIWLGFIAGLIA [15mer-4], for which, in series [1], the “INF-γ production” value is “increased” and the “TNF-α production” value is reported as “increased”.
